Experimental data published in patent US20140105879A1, “FLOUR-BASED FUNCTIONAL FOOD” (priority 2011, published 2014).

Tested on: HMG-CoA reductase
Assay: action on the enzyme HMG-CoA reductase (further experimental data)
Text: Therefore, the functional bread to which vegetable extracts have been added according to the present invention is capable of exerting a functional, salutary action in prevention and treatment of cholesterol and triglyceride levels exceeding the reference values, in addition to an action of protecting the arteries and the cardio-circulatory system and a hepatoprotective and antioxidant action, thanks to the synergistic biochemical actions of the phytocomplexes included in the bread, which enable an enhanced bioactivity thereof to be obtained in the resulting product.

CCCCCCCCCCCCCCCCCCCCCCCCCCCCO [octacosanol]
action on the enzyme HMG-CoA reductase: reducing the quantity thereof
